Laboratory results as given in patent US10208082B2, “Sustained-release pharmaceutical composition for treatment and prevention of eye disease” (Daiichi Sankyo Company, Limited, priority 2014, dated 2019).

Assays:
[1] = system: NQO1; test: NQO1 assay in Hepa1c1c7 cells; type: cell-based, mouse; details: approximately 48 hours culture, mean of 3 wells
Procedure: Hepa1c1c7 cells (mouse hepatic cell line, ATCC, catalog No. CRL-2026) were cultured (5% CO2, 37° C.). A DMEM (Life Technologies Japan Ltd., catalog No. 11965-092) medium also containing 10% inactivated FBS was used. The medium contained 100 units/mL (final concentration) penicillin and […] (final concentration) streptomycin. The NQO1 assay was conducted according to previous reports (Anal Biochem 1998; 169: 328; and Methods Enzymol 2004; 382: 243).
The Hepa1c1c7 cells were seeded at 10000 cells/well in a 96-well plate. Approximately 24 hours later, the medium was replaced with a medium containing terpenoid derivative (III), terpenoid derivative (I), or terpenoid derivative (II), and the culture was further performed for approximately 48 hours. A lysis solution (a solution containing 2 mM EDTA and 0.8% digitonin), a reaction solution (a solution containing 0.025 M of tris-HCl, 0.067% of albumin, 0.01% of Tween-20, 2 U/mL of glucose-6-phosphate dehydrogenase, 5 μM of flavin adenine dinucleotide, 1 […], 30 μM of nicotinamide adenine dinucleotide phosphate, 0.03% of 3-(4, 5-dimethyl-2-thiazolyl)-2,5-diphenyltetrazolium bromide (MTT), and 50 μM of menadione), and a stop solution (a solution containing 0.3 mM dicumarol and 5 mM potassium dihydrogen phosphate, pH 7.4) were prepared. After removal of the medium, 50 μL of the lysis solution was added thereto, and the mixture was left standing at 37° C. for 10 minutes. The reaction mixture was further shaken at room temperature for 10 minutes.
Two hundred uL of the solution was added thereto, and the mixture was left standing at room temperature for 5 minutes. Fifty μL of the stop solution was added thereto, and the absorbance at 490 nm was measured.
The test results were analyzed using Prism (GraphPad Software, Inc., Ver. 5) to calculate the CD value (concentration of double NQO1 activity) of the concentration at which the activity of NQO1 was increased 2-fold. Each group consisted of 3 wells and indicated as a mean of CD values. […]

[2] = Pharmacokinetic test of microspheres containing terpenoid derivative (III) in rabbit eye; type: in vivo; details: male, Kbl:NZW (white rabbit), intravitreal fluid, other: intravitreal, mean of 4 eyes and SD
Procedure: Suspensions were prepared using each of terpenoid derivative (III) of the present invention, terpenoid derivative (III) of the present invention-PLA-0005 [prepared by using PLA-0005 as the base material and adjusting the mixing ratio of terpenoid derivative (III) of the present invention and PLA-0005 to 1:9], and terpenoid derivative (III) of the present invention-PLA-0020 [prepared by using PLA-0020 as the base material and adjusting the mixing ratio of terpenoid derivative (III) of the present invention and PLA-0020 to 1:9], and saline as a solvent such that the concentration of terpenoid derivative (III) was 3 mM.
50 μL each of the suspensions was intravitreally administered to each white rabbit (Oriental Yeast Co., Ltd., Kbl:NZW, male, 8 weeks old). After the intravitreal administration, the rabbit was euthanized, and the intravitreal fluid and the retina were sampled. The concentration of terpenoid derivative (III) contained in these samples was measured. The numeric values shown in Table 12 below are indicated by a mean from 4 eyes and standard deviation. The drug concentration in each tissue was measured by LC/MS/MS. The tissue was pretreated by dilution with purified water in an amount corresponding to 10 times the weight of the tissue and subsequent homogenization to obtain a measurement sample. A water/acetonitrile (1:1) solution containing an internal standard solution (IS; niflumic acid) was added to the obtained sample to extract the drug. Then, the solution was filtered through a filter and injected to LC/MS/MS.
The LC/MS/MS conditions were as follows: • <UPLC conditions>: Waters Acquity UPLC • analysis column: ACQUITY UPLC BEH C18 1.7 μm • column temperature: 50° C. • mobile phase A: 95% acetonitrile (5 mM ammonium acetate) • mobile phase B: 5% acetonitrile (5 mM ammonium acetate).
• <MS/MS conditions>: analysis apparatus API4000 • Ionization mode: ESI • Ion polarity mode: Positive • Monitor Ion • terpenoid derivative (III) (Precursor ion (m/z): 538.5, Product ion (m/z): 460) • IS (Precursor ion (m/z): 283.2, Product ion (m/z): 265).

concentration at 1 day ([2]; Day 1, intravitreal 50 μL of 3 mM suspension) [nM]	concentration at 2 day ([2]; Day 2, intravitreal 50 μL of 3 mM suspension) [nM]	concentration at 7 day ([2]; Day 7, intravitreal 50 μL of 3 mM suspension) [nM]	SMILES	CD value (concentration of double NQO1 activity) [1] [nM]
–	–	–	COC(=O)[C@@]12CC[C@]3(C)[C@H](C(=O)C=C4[C@@]5(C)C=C(C#N)C(=O)C(C)(C)[C@@H]5CC[C@]43C)[C@@H]1CC(C)(C)[C@@H](O)C2 [terpenoid derivative (I)]	0.3
–	–	–	COC(=O)[C@@]12CC[C@]3(C)[C@H](C(=O)C=C4[C@@]5(C)[C@H]6O[C@@]6(C#N)C(=O)C(C)(C)[C@@H]5CC[C@]43C)[C@@H]1CC(C)(C)[C@H](O)C2 [terpenoid derivative (II)]	0.1
79700 ± 22100	0.1	0.1	COC(=O)[C@@]12CC[C@]3(C)[C@H](C(=O)C=C4[C@@]5(C)[C@H]6O[C@@]6(C#N)C(=O)C(C)(C)[C@@H]5CC[C@]43C)[C@@H]1CC(C)(C)[C@@H](O)C2 [terpenoid derivative (III)]	1.0
